Measured values from publication PMC9088311, “Cyclic Thiosulfonates for Thiol-Mediated Uptake: Cascade Exchangers, Transporters, Inhibitors” (JACS Au, 2022).
≈ marks a conversion by molar mass, not a printed value. Where “and” joins values, the source holds several entries; their conditions need not be identical. Equal entries are not always repeated.

Tests used:
[1] = Dynamic covalent ring opening with thiol 10, 1H NMR kinetics; format: physicochemical
Experimental: The dynamic covalent opening of CTO 3 with thiols yields product 9 with a disulfide and a sulfinate (Figure 3B). Consistent with short chalcogen bonds found in silico, the opening of CTO 3 was instantaneous on an NMR timescale with most thiols. To decelerate ring opening, bulky thiols were considered in combination with lowered pH to deactivate the nucleophile. With N-Ac-D-penicillamine 10, the opening of 5 mM CTO 3 in phosphate buffer/DMSO-d6 9:1 was still immediate at pD 6.7 but became detectable in ^1H NMR spectroscopy kinetics under more acidic conditions. The ring-opening rate constants k^O were estimated by fitting the initial velocities to second-order kinetics. Only lower bound rates were approximated from the earliest determined substrate conversions when reactions were still too fast despite the unfavorable conditions. At pD 5.4, dynamic covalent ring opening of CTO 3 with equimolar tertiary thiol 10 occurred with k^O > 0.49 M^–1 s^–1 and equilibrated at K = 6.0 × 10^3 M^–1 (Table 1, entry 1, Figures S4 and S5). At pD 2.7, further deceleration to k^O = 0.10 M^–1 s^–1 shifted the equilibrium to K = 500 M^–1 (Table 1, entry 2, Figures S6 and S7). […] At equilibrium, the concentration of thiol 10 further decreased slowly due to oxidation into the homodimer (Figure 3C, diamonds).
Equilibrium constants for reactions with two reactants A and B and a product C are […]
3.1.1. Dynamic Covalent Ring Opening with Thiols
General procedure A (at 5 mM): To a solution of deuterated sodium phosphate (200 mM in D 2O, pD 2.7 or 5.4, 180 mM final concentration), a stock solution of substrate (0.10 M in DMSO-d6, 5.0 mM final concentration) was added and stirred. Then a stock solution of 10 (0.10 M in DMSO- d6, 5.0 mM final concentration) was added and vigorously stirred at room temperature. The solution was transferred immediately to an NMR tube and NMR data were recorded repeatedly. The concentration of the substrate or thiol at each time plot was calculated by comparing the integrals of the peaks indicated with arrows in the figures, and plotted. The data points were fitted to obtain k1 with the Equation (S6) or (S7) using Graphpad Prism.
General procedure B (at 2 mM): To a solution of deuterated sodium phosphate (200 mM in D 2O, pD 2.7 or 5.4, 180 mM final concentration), DMSO- d6 (10% DMSO- d6 in the reaction mixture) and a stock solution of substrate (0.10 M in DMSO- d6, 2.0 mM final concentration) were added and stirred. Then a stock solution of 10 (0.10 M in DMSO- d6, 2.0 mM final concentration) was added and vigorously stirred at room temperature. The solution was transferred immediately to an NMR tube and NMR data were recorded repeatedly. The concentration of the substrate or thiol at each time plot was calculated by comparing the integrals of the peaks indicated with arrows in the figures, and plotted. The data points were fitted to obtain k1 with the Equation (S6) or (S7) using Graphpad Prism.
General procedure C (for thiosulfinates): To a solution of deuterated sodium phosphate (200 mM in D 2O, pD 5.4, 170 mM final concentration), a stock solution of substrate (0.10 M in DMSO- d6, 5.0 mM final concentration) was added and stirred. Then a stock solution of 10 (0.10 M in DMSO- d6, 10 mM final concentration) was added and vigorously stirred at room […]
data points were fitted to obtain k1 with the Equation (S14) or (S16) using Graphpad Prism. […]
3.1.2. Dependence of Ring Opening on Proticity
A mixture of deuterated phosphoric acid and NaOD (30% in D 2O), which gave pD 2.7 in D2O, was used as buffer in all solvent mixtures. To a solution of deuterated sodium phosphate (20 mM final concentration) in a mixture of D 2O and DMSO- d6 (540 μL, final D 2O content: […]
concentration) was added and stirred. Then a stock solution of 10 (0.10 M in DMSO- d6, 5.0 mM final concentration) was added and vigorously stirred at room temperature. The solution was transferred immediately to an NMR tube and 1H NMR data were recorded repeatedly. […]

HK cells, transporter 31 = details: transporter 31 10 μM, pre-incubation (P), cited from earlier work; for IC50: read-out: IC50 (concentration needed to reach 50% inhibition)
HK cells, transporter 32 = tested on: HK cells, transporter 32; parameters: method as in PMID 34173696; details: transporter 32 0.5 or 1 μM, pre-incubation (P), cited from earlier work
HeLa Kyoto cells = details: with transporter 31; pre-incubation (P); cited from earlier work
cathepsin L = cathepsin L (Homo sapiens, UniProt P07711); assay: Cathepsin L inhibition (preliminary, not shown); format: biochemical; details: 50 μM; preliminary results
Sequence of cathepsin L (P07711 114-333, species assumed): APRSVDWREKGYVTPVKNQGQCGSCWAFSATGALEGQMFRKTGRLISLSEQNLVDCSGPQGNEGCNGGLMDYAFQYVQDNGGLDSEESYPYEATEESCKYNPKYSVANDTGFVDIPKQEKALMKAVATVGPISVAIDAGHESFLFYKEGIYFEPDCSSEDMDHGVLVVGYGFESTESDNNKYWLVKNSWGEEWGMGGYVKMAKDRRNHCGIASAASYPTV

cathepsin B = cathepsin B (Homo sapiens, UniProt P07858); assay: Cathepsin B inhibition (preliminary, not shown); format: biochemical; details: 50 μM; preliminary results
in vitro = details: human
trypsin = assay: Trypsin inhibition (preliminary, not shown); format: biochemical; details: 50 μM; preliminary results
[2] = equimolar 10, rt, pD 2.7, 90% D2O, Na+ phosphate 180 mM, substrate 2 mM

## O=S1(=O)C[C@H](O)[C@H](O)CS1 (stereo in doubt) [Compound 3, (4S,5R)-4,5-dihydroxy-1,2-dithiane-1,1-dioxide]
[1]; equimolar 10, rt, pD 2.7, 90% D2O/DMSO-d6, Na+ phosphate 180 mM, substrate 5 mM
  k^O, rate constant of ring opening: 0.10 M^–1 s^–1 and 0.10 ^i M^–1 s^–1
[1]; equimolar 10, rt, pD 5.4, 90% D2O/DMSO-d6, Na+ phosphate 180 mM, substrate 5 mM
  k^O, rate constant of ring opening (or equivalent for acyclic controls): >0.49 M^–1 s^–1
[1]; estimated pD 2.7, Na+ phosphate 20 mM, 2% D2O, 5 mM
  k^O, rate constant of ring opening: >1.4 M^–1 s^–1
[1]; estimated pD 2.7, Na+ phosphate 20 mM, 5% D2O, 5 mM
  k^O, rate constant of ring opening: >1.3 M^–1 s^–1
[1]; estimated pD 2.7, Na+ phosphate 20 mM, 8% D2O, 5 mM
  k^O, rate constant of ring opening: >1.4 M^–1 s^–1
[1]; estimated pD 2.7, Na+ phosphate 20 mM, 10% D2O, 5 mM
  k^O, rate constant of ring opening: >2.1 M^–1 s^–1
[1]; estimated pD 2.7, Na+ phosphate 20 mM, 30% D2O, 5 mM
  k^O, rate constant of ring opening: >2.8 M^–1 s^–1
[1]; estimated pD 2.7, Na+ phosphate 20 mM, 50% D2O, 5 mM
  k^O, rate constant of ring opening: >1.3 M^–1 s^–1
[1]; estimated pD 2.7, Na+ phosphate 20 mM, 70% D2O, 5 mM
  k^O, rate constant of ring opening: 0.28 ± 0.03 M^–1 s^–1 and 0.28 M^–1 s^–1
[1]; estimated pD 2.7, Na+ phosphate 20 mM, 90% D2O, 5 mM
  k^O, rate constant of ring opening: 0.15 ± 0.01 M^–1 s^–1 and 0.15 M^–1 s^–1
[1]; pD 2.7, 90% D2O, 5 mM
  krel^O, rate constant of ring opening relative to 3: 1
[1]; pD 5.4, 90% D2O, 5 mM
  krel^O, rate constant of ring opening relative to 3: 1
HK cells, transporter 31
  IC50: > 1 mM
  MIC (concentration needed to reach 15% inhibition): 200 µM (≈ 36.8 µg/mL)
HK cells, transporter 32; read-out: IC50 (concentration needed to reach 50% inhibition)
  IC50: 550 µM
HK cells, transporter 32
  MIC (concentration needed to reach 15% inhibition): 250 µM (≈ 46.1 µg/mL)
HeLa Kyoto cells
  RV50 (concentration needed to lower relative viability by 50%): 1300 µM
Cathepsin L
  inhibition of cathepsin L (in words): not L
Cathepsin B
  inhibition of cathepsin B (in words): inhibits
In vitro
  viability at 7 h, 50 µM: 81%
trypsin
  inhibition of trypsin (in words): inhibits

## O=S1(=O)C=C[C@@H](O)CS1 [Compound 12]
[1]; [2]
  k^O, rate constant of ring opening (or equivalent for acyclic controls): >6.1 M^–1 s^–1
[1]; pD 2.7, 90% D2O, 2 mM
  krel^O, rate constant of ring opening relative to 3: >61
Cathepsin L
  inhibition of cathepsin L (in words): inhibit only cathepsin B
Cathepsin B
  inhibition of cathepsin B (in words): inhibit only cathepsin B
trypsin
  inhibition of trypsin (in words): inhibit only cathepsin B

## O=C1O[C@H]2CSS(=O)(=O)C[C@H]2O1 [Compound 11]
[1]; [2]
  k^O, rate constant of ring opening (or equivalent for acyclic controls): >12 M^–1 s^–1
[1]; pD 2.7, 90% D2O, 2 mM
  krel^O, rate constant of ring opening relative to 3: >120
[1]; with thiol 10, pD 2.7
  ring opening faster than 3 (fold): > 100 ×
In vitro
  viability at 7 h, 50 µM: 84%

## [O-][S+]1C[C@@H](O)[C@@H](O)CS1 (stereo partly drawn) [Compound 2]
[1]; 2 equiv of 10, rt, pD 5.4, 85% D2O, Na+ phosphate 170 mM, substrate 5 mM
  k^O, rate constant of ring opening (or equivalent for acyclic controls): 0.001 M^–1 s^–1
[1]; pD 5.4, 85% D2O, 5 mM, 2 equiv of 10
  krel^O, rate constant of ring opening relative to 3: <0.002
[1]; with thiol 10, pD 5.4
  ring opening/exchange slower than CTO 3 (fold): > 500 ×
HK cells, transporter 31
  IC50: > 5 mM
  MIC (concentration needed to reach 15% inhibition): 800 µM (≈ 135 µg/mL)
HeLa Kyoto cells
  RV50 (concentration needed to lower relative viability by 50%): 4400 µM
